The record followed here is patent US20240368092A1, “2,4-Dihydro-3H-1,2,4-Triazol-3-One P2X7 Antagonists” (Breye Therapeutics ApS, priority 2021, published 2024).

Assay type in all cases: cell-based
The target of assay [1] is T1, mouseP2X7 (Mus musculus, UniProt Q9Z1M0).
T1 construct: expressed in transfected cells; host or cells: HEK-293
T1 sequence (Q9Z1M0 1-595): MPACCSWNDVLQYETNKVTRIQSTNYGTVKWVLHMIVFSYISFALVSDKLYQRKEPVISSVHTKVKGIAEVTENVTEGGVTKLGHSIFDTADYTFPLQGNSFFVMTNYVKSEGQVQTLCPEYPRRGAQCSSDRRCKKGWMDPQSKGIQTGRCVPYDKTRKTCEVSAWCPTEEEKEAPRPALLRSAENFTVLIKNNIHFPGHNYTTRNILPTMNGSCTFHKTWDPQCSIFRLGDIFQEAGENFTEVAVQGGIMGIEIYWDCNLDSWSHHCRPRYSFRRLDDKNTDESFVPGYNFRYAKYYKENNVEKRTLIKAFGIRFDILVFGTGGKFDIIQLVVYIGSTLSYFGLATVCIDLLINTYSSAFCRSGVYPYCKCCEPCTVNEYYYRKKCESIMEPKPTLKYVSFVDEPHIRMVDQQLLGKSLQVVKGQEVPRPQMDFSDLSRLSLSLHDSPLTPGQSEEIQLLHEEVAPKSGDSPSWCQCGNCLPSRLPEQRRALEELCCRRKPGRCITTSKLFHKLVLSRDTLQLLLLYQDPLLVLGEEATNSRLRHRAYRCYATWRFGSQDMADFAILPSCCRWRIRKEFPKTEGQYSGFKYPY
Briefly: P2X7 channel calcium-influx assay (Fluo-8, FLIPR TETRA), mouse P2X7. Conditions: HEK-293 cells stably transfected with P2X7; Bz-ATP at EC80; low divalent cation buffer; read-out: mouseP2X7 (activity range). An outline of the steps:
(§1)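 HEK-293 cells stably expressing the respective species' P2X7, Fluo-8 NW loaded 1 h at RT in low divalent buffer (0.3 mM Ca2+, 0 mM Mg2+). Compound preincubated 5 min, then Bz-ATP at EC80; FLIPR calcium influx over 3 min. IC50 from % inhibition relative to reference antagonist A438079, reported as potency bins.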

Assay [2] addresses T2, humanP2X7 (Homo sapiens, UniProt Q99572).
T2 construct: expressed in transfected cells; host or cells: HEK-293
T2 sequence (Q99572 1-595): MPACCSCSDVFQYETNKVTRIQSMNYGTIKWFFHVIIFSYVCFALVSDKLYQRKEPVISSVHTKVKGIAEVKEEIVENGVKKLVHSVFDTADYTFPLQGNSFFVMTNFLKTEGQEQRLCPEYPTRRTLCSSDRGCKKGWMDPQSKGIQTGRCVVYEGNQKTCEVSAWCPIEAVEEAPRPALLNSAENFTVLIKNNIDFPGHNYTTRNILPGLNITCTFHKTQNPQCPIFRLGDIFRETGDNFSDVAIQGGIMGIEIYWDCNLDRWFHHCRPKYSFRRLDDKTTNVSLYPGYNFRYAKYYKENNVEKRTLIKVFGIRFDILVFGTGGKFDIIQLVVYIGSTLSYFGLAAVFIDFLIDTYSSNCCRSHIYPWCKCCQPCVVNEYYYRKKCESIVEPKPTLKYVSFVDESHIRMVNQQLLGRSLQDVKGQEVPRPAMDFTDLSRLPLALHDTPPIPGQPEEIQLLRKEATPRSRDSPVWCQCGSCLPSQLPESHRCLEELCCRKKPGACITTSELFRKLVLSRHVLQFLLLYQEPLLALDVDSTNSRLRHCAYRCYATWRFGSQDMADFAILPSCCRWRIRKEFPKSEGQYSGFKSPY
Briefly: P2X7 channel calcium-influx assay (Fluo-8, FLIPR TETRA), human P2X7. Conditions: HEK-293 cells stably transfected with P2X7; Bz-ATP at EC80; low divalent cation buffer; read-out: humanP2X7 (activity range). A digest of the protocol: as §1

Assay [3] concerns the target T3, human P2X7 channel (Homo sapiens, UniProt Q99572).
T3 construct: expressed in transfected cells; host or cells: HEK-293
T3 sequence (Q99572 1-595): T2 sequence (Q99572 1-595)
Briefly: human P2X7 channel assay by automated patch-clamp (QPatch 16X). Particulars: HEK-293 cells expressing P2X7; current evoked by 100 microM BzATP; whole-cell, held at -80 mV; read-out: human Q-Patch (activity range). A digest of the protocol:
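Whole-cell patch clamp on HEK-293 cells expressing P2X7, room temperature, held at −80 mV, CsF internal and NaCl external (pH 7.4). Currents evoked by 100 microM BzATP, four controls then with compound at 1, 10, 100 and 1000 nM; peak inward current normalized, IC50 from dose-response fit, reported as potency bins.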
For orientation: The patch-clamp technique gives a direct electrical read-out from membranes.

Assay [4] addresses T4, ratP2X7 (Rattus norvegicus, UniProt Q64663).
T4 construct: expressed in transfected cells; host or cells: HEK-293
T4 sequence (Q64663 1-595): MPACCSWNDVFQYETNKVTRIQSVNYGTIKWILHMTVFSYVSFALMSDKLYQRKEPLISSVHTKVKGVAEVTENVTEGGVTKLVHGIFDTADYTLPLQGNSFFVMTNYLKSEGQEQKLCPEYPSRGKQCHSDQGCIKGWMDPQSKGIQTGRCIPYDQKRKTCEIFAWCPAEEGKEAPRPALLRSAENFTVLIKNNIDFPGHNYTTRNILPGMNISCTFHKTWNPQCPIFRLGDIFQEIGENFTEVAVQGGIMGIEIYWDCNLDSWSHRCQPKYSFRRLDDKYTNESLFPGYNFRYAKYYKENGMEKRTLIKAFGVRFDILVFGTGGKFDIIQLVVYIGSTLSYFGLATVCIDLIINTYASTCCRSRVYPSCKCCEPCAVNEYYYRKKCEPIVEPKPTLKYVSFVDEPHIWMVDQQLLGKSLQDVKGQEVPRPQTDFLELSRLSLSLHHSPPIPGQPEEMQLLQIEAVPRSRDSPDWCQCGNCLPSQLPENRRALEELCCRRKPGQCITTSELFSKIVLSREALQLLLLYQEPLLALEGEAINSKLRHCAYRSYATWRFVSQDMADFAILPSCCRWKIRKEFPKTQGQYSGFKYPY
Briefly: P2X7 channel calcium-influx assay (Fluo-8, FLIPR TETRA), rat P2X7. Particulars: HEK-293 cells stably transfected with P2X7; Bz-ATP at EC80; low divalent cation buffer; read-out: ratP2X7 (activity range). An outline of the steps:
as §1

As to `Cn1nc(Cc2c(F)cccc2Cl)n(CCN2CCOCC2(C)C)c1=O` [Example 30, 5-(2-chloro-6-fluorobenzyl)-4-(2-(3,3-dimethylmorpholino)ethyl)-2-methyl-2,4-dihydro-3H-1,2,4-triazol-3-one], the IC50 was 10000 to 30000 nM in assay [1], 1000 to 10000 nM in assay [2], 1000 to 10000 nM in assay [3] and 1000 to 10000 nM in assay [4].

Turning to `Cc1ncccc1Cn1c(CC2CCCCC2)nn(C)c1=O` [Example 31, 5-(cyclohexylmethyl)-2-methyl-4-((2-methylpyridin-3-yl)methyl)-2,4-dihydro-3H-1,2,4-triazol-3-one], the IC50 in assay [1] fell in the range of 10000 to 30000 nM; in assay [2], 1000 to 10000 nM; in assay [3], 100 to 1000 nM; in assay [4] it was 1000 to 10000 nM.

Take `Cn1nc(Cc2ccccc2F)n(CC2CCCCC2(C)C)c1=O` (stereo not shown) [Example 32, 4-((2,2-dimethylcyclohexyl)methyl)-5-(2-fluorobenzyl)-2-methyl-2,4-dihydro-3H-1,2,4-triazol-3-one]: the IC50 in assay [1] was 1000 to 10000 nM; in assay [2], 1000 to 10000 nM; in assay [3] it was 1000 to 10000 nM; in assay [4], below 200 nM.

As for `Cn1nc(Cc2c(F)cccc2Cl)n(CC2CCCCC2(C)C)c1=O` (stereo not shown) [Example 33, 5-(2-chloro-6-fluorobenzyl)-4-((2,2-dimethylcyclohexyl)methyl)-2-methyl-2,4-dihydro-3H-1,2,4-triazol-3-one], the IC50 in assay [1] was 200 to 1000 nM; in assay [2], below 200 nM; in assay [3], 10 to 100 nM; in assay [4], below 200 nM.

As for `CCn1nc(Cc2c(F)cccc2Cl)n(CC2CCC(F)(F)CC2)c1=O` [Example 34, 5-(2-chloro-6-fluorobenzyl)-4-((4,4-difluorocyclohexyl)methyl)-2-ethyl-2,4-dihydro-3H-1,2,4-triazol-3-one], the IC50 was below 200 nM in assay [1], below 200 nM in assay [2], 10 to 100 nM in assay [3] and below 200 nM in assay [4].

As for `Cn1nc(Cc2ccc(F)cc2Cl)n(CC2CCC3(CC2)CC3)c1=O` [Example 35, 5-(2-chloro-4-fluorobenzyl)-2-methyl-4-(spiro[2.5]octan-6-ylmethyl)-2,4-dihydro-3H-1,2,4-triazol-3-one], the IC50 in assay [1] was 1000 to 10000 nM; in assay [2], 200 to 1000 nM; in assay [3], 100 to 1000 nM; in assay [4], below 200 nM.

Turning to `Cn1nc(Cc2ccc(F)cc2Cl)n(CCC2CCC(F)(F)CC2)c1=O` [Example 36, 5-(2-chloro-4-fluorobenzyl)-4-(2-(4,4-difluorocyclohexyl)ethyl)-2-methyl-2,4-dihydro-3H-1,2,4-triazol-3-one], the IC50 is 1000 to 10000 nM in assay [1], 200 to 1000 nM in assay [2], 100 to 1000 nM in assay [3] and 200 to 1000 nM in assay [4].

Take `Cn1nc(Cc2ccccc2F)n(CC2CCCCCC2)c1=O` [Example 37, 4-(cycloheptylmethyl)-5-(2-fluorobenzyl)-2-methyl-2,4-dihydro-3H-1,2,4-triazol-3-one]: the IC50 in assay [1] is 200 to 1000 nM; in assay [2] it was 200 to 1000 nM; in assay [3] it was 100 to 1000 nM; in assay [4], below 200 nM.

For `Cn1nc(CC2CCCCC2)n(Cc2cc(-c3ncc(F)cn3)ccc2Cl)c1=O` [Example 38, 4-(2-chloro-5-(5-fluoropyrimidin-2-yl)benzyl)-5-(cyclohexylmethyl)-2-methyl-2,4-dihydro-3H-1,2,4-triazol-3-one], the IC50 in assay [1] fell in the range of 1000 to 10000 nM; in assay [2] it was 200 to 1000 nM; in assay [3], 1000 to 10000 nM; in assay [4] it was 200 to 1000 nM.

In the case of `Cn1nc(Cc2ccccc2C(F)(F)F)n(CCC2CCC(F)(F)CC2)c1=O` [Example 39, 4-(2-(4,4-difluorocyclohexyl)ethyl)-2-methyl-5-(2-(trifluoromethyl)benzyl)-2,4-dihydro-3H-1,2,4-triazol-3-one], the IC50 in assay [1] is 1000 to 10000 nM; in assay [2] it was 200 to 1000 nM; in assay [3] it was 100 to 1000 nM; in assay [4] it was 200 to 1000 nM.

`Cn1nc(Cc2ccccc2C(F)(F)F)n(CC2CCC(C(F)(F)F)CC2)c1=O` (stereo not shown) [Example 40, 2-methyl-5-(2-(trifluoromethyl)benzyl)-4-((4-(trifluoromethyl)cyclohexyl)methyl)-2,4-dihydro-3H-1,2,4-triazol-3-one]: the IC50 is 1000 to 10000 nM in assay [1], below 200 nM in assay [2], 100 to 1000 nM in assay [3] and below 200 nM in assay [4].

As for `Cn1nc(Cc2ccc(F)cc2Cl)n(CCC2CCC(C)(C)CC2)c1=O` [Example 41, 5-(2-chloro-4-fluorobenzyl)-4-(2-(4,4-dimethylcyclohexyl)ethyl)-2-methyl-2,4-dihydro-3H-1,2,4-triazol-3-one], the IC50 in assay [1] was 10000 to 30000 nM; in assay [2], 200 to 1000 nM; in assay [3], 1000 to 10000 nM; in assay [4] it was 1000 to 10000 nM.

Turning to `Cn1nc(Cc2ccccc2Cl)n(CC2CCC(F)(F)CC2)c1=O` [Example 42, 5-(2-chlorobenzyl)-4-((4,4-difluorocyclohexyl)methyl)-2-methyl-2,4-dihydro-3H-1,2,4-triazol-3-one], the IC50 was 200 to 1000 nM in assay [1], below 200 nM in assay [2], 10 to 100 nM in assay [3] and below 200 nM in assay [4].

In the case of `O=c1n(CC2CC2)nc(Cc2c(F)cccc2Cl)n1CC1CCC(F)(F)CC1` [Example 43, 5-(2-chloro-6-fluorobenzyl)-2-(cyclopropylmethyl)-4-((4,4-difluorocyclohexyl)methyl)-2,4-dihydro-3H-1,2,4-triazol-3-one], the IC50 in assay [1] was below 200 nM; in assay [2], below 200 nM; in assay [3], 10 to 100 nM; in assay [4], below 200 nM.

For `O=c1n(CC(F)(F)F)nc(Cc2c(F)cccc2Cl)n1CC1CCC(F)(F)CC1` [Example 44, 5-(2-chloro-6-fluorobenzyl)-4-((4,4-difluorocyclohexyl)methyl)-2-(2,2,2-trifluoroethyl)-2,4-dihydro-3H-1,2,4-triazol-3-one], the IC50 is below 200 nM in assay [1], below 200 nM in assay [2], below 10 nM in assay [3] and below 200 nM in assay [4].

For the molecule `Cn1nc(Cc2ccccc2F)n(CCC2CCC(C)(C)CC2)c1=O` [Example 45, 4-(2-(4,4-dimethylcyclohexyl)ethyl)-5-(2-fluorobenzyl)-2-methyl-2,4-dihydro-3H-1,2,4-triazol-3-one], the IC50 in assay [1] lay in the range of 10000 to 30000 nM; in assay [2], 1000 to 10000 nM; in assay [3], 1000 to 10000 nM; in assay [4] it was 1000 to 10000 nM.
